Test results from PMC9095466 (Nature, 2022).
Values joined by “and” are separate entries in the source; they are usually repeats but may differ in a detail not shown here. Identical values can stand only once. Like-named read-outs stand apart in the source and are kept apart here.

Tests used:
Recombinant human hepsin = target: T1, Recombinant human hepsin (Homo sapiens, UniProt P05981); test: Protease selectivity, Ki on recombinant protease; assay type: biochemical; conditions: mean ± s.d., max concentration 10 µM; read-out: Ki Hepsin
T1 construct: made in house
T1 sequence (P05981 whole entry): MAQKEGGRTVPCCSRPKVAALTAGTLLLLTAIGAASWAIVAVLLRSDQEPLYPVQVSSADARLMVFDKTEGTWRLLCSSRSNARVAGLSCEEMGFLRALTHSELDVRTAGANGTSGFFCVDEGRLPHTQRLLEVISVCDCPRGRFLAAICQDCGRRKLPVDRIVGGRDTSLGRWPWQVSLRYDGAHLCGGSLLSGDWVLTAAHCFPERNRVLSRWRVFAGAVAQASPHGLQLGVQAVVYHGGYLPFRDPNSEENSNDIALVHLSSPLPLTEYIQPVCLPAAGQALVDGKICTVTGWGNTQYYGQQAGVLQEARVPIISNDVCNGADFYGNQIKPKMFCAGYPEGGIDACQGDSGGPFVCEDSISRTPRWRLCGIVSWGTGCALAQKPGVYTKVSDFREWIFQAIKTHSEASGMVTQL

[1] = target: T2, Recombinant human matriptase (Homo sapiens, UniProt Q9Y5Y6); test: Protease selectivity, Ki on recombinant protease; assay type: biochemical; conditions: mean ± s.d., max concentration 10 µM; read-out: Ki Matriptase
T2 construct: made in house
T2 sequence (Q9Y5Y6 1-855): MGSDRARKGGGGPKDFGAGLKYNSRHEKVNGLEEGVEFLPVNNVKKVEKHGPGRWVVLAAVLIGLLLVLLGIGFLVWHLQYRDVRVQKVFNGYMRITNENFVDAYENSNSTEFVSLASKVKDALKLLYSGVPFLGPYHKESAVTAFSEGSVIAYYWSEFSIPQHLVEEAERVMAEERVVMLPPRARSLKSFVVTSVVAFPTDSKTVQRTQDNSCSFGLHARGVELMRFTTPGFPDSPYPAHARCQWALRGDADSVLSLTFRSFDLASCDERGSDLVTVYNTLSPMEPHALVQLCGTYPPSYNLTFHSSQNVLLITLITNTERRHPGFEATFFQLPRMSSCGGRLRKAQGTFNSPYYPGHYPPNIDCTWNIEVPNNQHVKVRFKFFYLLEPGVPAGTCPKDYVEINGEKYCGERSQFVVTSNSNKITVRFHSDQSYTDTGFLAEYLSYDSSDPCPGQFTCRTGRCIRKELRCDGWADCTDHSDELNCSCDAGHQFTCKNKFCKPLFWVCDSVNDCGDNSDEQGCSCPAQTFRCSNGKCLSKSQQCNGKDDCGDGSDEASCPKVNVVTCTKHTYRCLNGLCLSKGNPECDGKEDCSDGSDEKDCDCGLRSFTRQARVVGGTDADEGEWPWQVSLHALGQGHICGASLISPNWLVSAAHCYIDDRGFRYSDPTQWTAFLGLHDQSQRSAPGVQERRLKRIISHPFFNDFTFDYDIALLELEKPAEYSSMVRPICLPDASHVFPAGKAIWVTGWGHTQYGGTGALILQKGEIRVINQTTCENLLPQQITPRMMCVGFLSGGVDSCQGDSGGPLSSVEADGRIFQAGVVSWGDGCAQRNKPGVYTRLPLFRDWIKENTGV

Recombinant human furin = target: T3, Recombinant human furin (Homo sapiens, UniProt P09958); test: Protease selectivity, Ki on recombinant protease; assay type: biochemical; conditions: mean ± s.d., max concentration 10 µM; read-out: Ki Furin
T3 construct: purchased Bio-Techne
T3 sequence (P09958 108-794): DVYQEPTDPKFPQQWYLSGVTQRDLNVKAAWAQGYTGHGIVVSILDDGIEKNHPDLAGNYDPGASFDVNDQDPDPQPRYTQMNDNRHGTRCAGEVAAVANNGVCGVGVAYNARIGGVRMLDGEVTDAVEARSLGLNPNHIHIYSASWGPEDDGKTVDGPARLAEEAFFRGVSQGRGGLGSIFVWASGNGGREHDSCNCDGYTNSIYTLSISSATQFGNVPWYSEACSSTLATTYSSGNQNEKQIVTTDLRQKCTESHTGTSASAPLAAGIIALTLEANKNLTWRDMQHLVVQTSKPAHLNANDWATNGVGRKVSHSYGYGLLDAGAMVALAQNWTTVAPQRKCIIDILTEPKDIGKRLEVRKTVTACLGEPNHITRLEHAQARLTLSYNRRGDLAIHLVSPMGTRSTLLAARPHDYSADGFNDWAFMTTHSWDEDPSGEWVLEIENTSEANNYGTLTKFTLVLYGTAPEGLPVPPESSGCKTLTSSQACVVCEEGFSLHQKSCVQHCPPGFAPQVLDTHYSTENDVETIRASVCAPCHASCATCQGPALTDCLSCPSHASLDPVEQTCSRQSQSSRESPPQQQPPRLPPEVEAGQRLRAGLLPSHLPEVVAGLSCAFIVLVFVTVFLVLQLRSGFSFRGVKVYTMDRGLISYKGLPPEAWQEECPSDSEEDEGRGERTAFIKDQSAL

[2] = tested on: SARS-CoV-2 lineage B strain (VIDO); test: microbe, parasite or virus in culture; assay type: cell-based; conditions: for Nucleocapsid / dsRNA: Figure 2a, two replicates; for Nucleocapsid: DMSO control about 91-94; for dsRNA: DMSO control about 93-95; for EC50 / inhibition at 0.1 µM: Severe acute respiratory syndrome coronavirus 2, Calu-3; for EC50: read-out: SARS-CoV-2 VIDO Nucleocapsid EC50 ± SE; for inhibition at 0.1 µM: read-out: inhibition of SARS-CoV-2 infection
[3] = Cytotoxicity CC50 in Calu-3 lung epithelial cells; assay type: cell-based, human; conditions: human, Calu-3 cells; for viability at 24 h, 3000 µM: Log [inhibitor] -2.52; for viability at 24 h, 1000 µM: Log [inhibitor] -3.00; for viability at 24 h, 300 µM: Log [inhibitor] -3.52; for viability at 24 h, 100 µM: Log [inhibitor] -4.00; for viability at 24 h, 30 µM: Log [inhibitor] -4.52; for viability at 24 h, 10 µM: Log [inhibitor] -5.00; for viability at 24 h, 3 µM: Log [inhibitor] -5.52; for viability at 24 h, 0.3 µM: Log [inhibitor] -6.52; for viability at 24 h, 0.03 µM: Log [inhibitor] -7.52; for viability at 24 h, 0.003 µM: Log [inhibitor] -8.52; for CC50 at 24 h: unit not given for CC50, read-out: CC50
Calu-3 cells = test: Cytotoxicity CC50 in Calu-3 lung epithelial cells; assay type: cell-based, human; conditions: single replicates
human TMPRSS2 = human TMPRSS2 (Homo sapiens, UniProt O15393); test: cell-based; conditions: for TMPRSS2 relative activity: technical duplicates; for inhibition at 0.01 µM: Vero C1008, 10 nM compound, 24 h, vs untreated/vehicle TMPRSS2-expressing Vero E6 cells, read-out: inhibition of TMPRSS2 activity (reduction of substrate proteolysis)
human TMPRSS2, sequence (O15393 whole entry): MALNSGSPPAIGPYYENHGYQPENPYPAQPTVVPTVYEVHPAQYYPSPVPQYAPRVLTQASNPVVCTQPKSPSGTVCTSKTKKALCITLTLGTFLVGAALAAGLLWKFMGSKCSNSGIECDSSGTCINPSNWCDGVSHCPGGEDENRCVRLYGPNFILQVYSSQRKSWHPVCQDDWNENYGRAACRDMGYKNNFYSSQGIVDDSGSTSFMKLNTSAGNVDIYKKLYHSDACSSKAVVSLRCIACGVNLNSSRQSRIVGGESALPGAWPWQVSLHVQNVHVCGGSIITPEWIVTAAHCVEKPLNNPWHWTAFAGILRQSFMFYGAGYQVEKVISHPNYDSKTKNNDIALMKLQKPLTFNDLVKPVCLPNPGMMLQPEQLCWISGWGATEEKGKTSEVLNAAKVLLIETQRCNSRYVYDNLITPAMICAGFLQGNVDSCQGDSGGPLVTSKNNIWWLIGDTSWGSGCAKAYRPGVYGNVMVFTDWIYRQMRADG

human cathepsin L = target: T4, human cathepsin L (Homo sapiens, UniProt P07711); test: Protease selectivity, Ki on protease; assay type: biochemical; conditions: mean ± s.d., max concentration 10 µM; read-out: Ki Cathepsin L
T4 construct: purchased Bio-Techne
T4 sequence (P07711 114-333): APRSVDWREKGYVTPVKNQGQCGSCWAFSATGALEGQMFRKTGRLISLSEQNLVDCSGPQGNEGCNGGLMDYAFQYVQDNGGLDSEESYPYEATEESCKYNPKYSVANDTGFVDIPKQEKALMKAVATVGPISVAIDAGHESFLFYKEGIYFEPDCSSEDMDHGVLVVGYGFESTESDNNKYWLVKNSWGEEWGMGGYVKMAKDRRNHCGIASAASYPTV

Recombinant human DESC1 = target: T5, Recombinant human DESC1 (Homo sapiens, UniProt Q9UL52); test: Protease selectivity, Ki on recombinant protease; assay type: biochemical; conditions: mean ± s.d., max concentration 10 µM; read-out: Ki DESC1
T5 construct: made in house
T5 sequence (Q9UL52 1-423): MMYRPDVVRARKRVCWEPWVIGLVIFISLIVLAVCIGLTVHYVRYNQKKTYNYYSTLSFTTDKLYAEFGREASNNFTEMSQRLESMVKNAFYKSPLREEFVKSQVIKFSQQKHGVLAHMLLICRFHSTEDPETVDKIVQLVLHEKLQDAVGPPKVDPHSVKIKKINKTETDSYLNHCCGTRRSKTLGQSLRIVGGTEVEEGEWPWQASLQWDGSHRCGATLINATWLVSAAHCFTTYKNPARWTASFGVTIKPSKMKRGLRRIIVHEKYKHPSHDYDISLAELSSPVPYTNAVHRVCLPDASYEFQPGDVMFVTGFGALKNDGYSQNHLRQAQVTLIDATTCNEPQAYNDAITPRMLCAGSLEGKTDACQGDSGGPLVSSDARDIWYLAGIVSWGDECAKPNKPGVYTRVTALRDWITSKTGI

human thrombin = target: T6, human thrombin (Homo sapiens, UniProt P00734); test: Protease selectivity, Ki on protease; assay type: biochemical; conditions: mean ± s.d., max concentration 10 µM; read-out: Ki Thrombin
T6 construct: purchased MilliporeSigma

[4] = read-out: % of Viability, Average (n=2)
[5] = single replicates, read-out: % of Viability
[6] = TMPRSS2, mean of independent experiments, Figure 1C, read-out: IC50 Mean
[7] = Vero E6 cells expressing human TMPRSS2, 24 h with fluorogenic substrate, read-out: TMPRSS2 IC50 ± SD

Compound: N=C(N)NCCCCC(=O)NC(CCC(N)=O)C(=O)NC(Cc1ccccc1)C(=O)NC(CCCNC(=N)N)C(=O)c1nc2ccccc2s1 (stereo not drawn) [Compound N-0130, (H)RQFR-kbt]
- Ki (Recombinant human hepsin): 0.00038 ± 0.00019 µM
- Ki [1]: 0.00013 ± 3e-05 µM
- Ki (Recombinant human furin): > 10 µM
- Nucleocapsid [2]: 2.419 and 11.8709
- dsRNA [2]: 3.583 and 18.343
- EC50 [2]: 0.0301 ± 0.0301 µM
- inhibition at 0.1 µM [2]: > 93%
- Figure 2b dose-response, Mean ([2]; log [C] (nM) 0.20412): 93.6494
- Figure 2b dose-response, Mean ([2]; log [C] (nM) 0.90309): 82.4234
- Figure 2b dose-response, Mean ([2]; log [C] (nM) 1.60206): 39.6362
- Figure 2b dose-response, Mean ([2]; log [C] (nM) 2.30103): 5.2153
- Figure 2b dose-response, Mean ([2]; log [C] (nM) 3): 0.8023
- Figure 2b dose-response, Mean ([2]; log [C] (nM) -0.49485): 100
- Figure 2b dose-response, Mean ([2]; log [C] (nM) -1.19382): 97.2147
- viability at 24 h, 3000 µM [3, 4]: 44.5%
- viability at 24 h, 3000 µM [3, 5]: 42%
- viability at 24 h, 1000 µM [3, 4]: 86.5%
- viability at 24 h, 1000 µM [3, 5]: 84%
- viability at 24 h, 300 µM [3, 4]: 90.5%
- viability at 24 h, 300 µM [3, 5]: 90%
- viability at 24 h, 100 µM [3, 4]: 91%
- viability at 24 h, 100 µM [3, 5]: 88%
- viability at 24 h, 30 µM [3, 4]: 96.5%
- viability at 24 h, 30 µM [3, 5]: 98%
- viability at 24 h, 10 µM [3, 4]: 95%
- viability at 24 h, 10 µM [3, 5]: 98%
- viability at 24 h, 3 µM [3, 4]: 100%
- viability at 24 h, 3 µM [3, 5]: 99%
- viability at 24 h, 0.3 µM [3, 4]: 106%
- viability at 24 h, 0.3 µM [3, 5]: 103%
- viability at 24 h, 0.03 µM [3, 4]: 101%
- viability at 24 h, 0.03 µM [3, 5]: 99%
- viability at 24 h, 0.003 µM [3, 4]: 104%
- viability at 24 h, 0.003 µM [3, 5]: 101%
- CC50 at 24 h [3]: 2680 µM
- % of Viability (Calu-3 cells; Log [inhibitor] -2.52): 47%
- % of Viability (Calu-3 cells; Log [inhibitor] -3.00): 89%
- % of Viability (Calu-3 cells; Log [inhibitor] -4.00): 94%
- % of Viability (Calu-3 cells; Log [inhibitor] -5.00): 92%
- % of Viability (Calu-3 cells; Log [inhibitor] -6.52): 108%
- % of Viability (Calu-3 cells; Log [inhibitor] -8.52): 107%
- TMPRSS2 relative activity (human TMPRSS2; 1.00E-06 M): 5.317 and 4.665
- TMPRSS2 relative activity (human TMPRSS2; 1.00E-07 M): 0.9344 and 1.227
- TMPRSS2 relative activity (human TMPRSS2; 2.00E-08 M): 26.2346 and 28.2385
- TMPRSS2 relative activity (human TMPRSS2; 3.20E-11 M): 95.7258 and 93.264
- TMPRSS2 relative activity (human TMPRSS2; 4.00E-09 M): 48.3901 and 50.7993
- TMPRSS2 relative activity (human TMPRSS2; 8.00E-10 M): 84.4379 and 85.0608
- TMPRSS2 activity (%) (human TMPRSS2; Figure 1B, single experiments N1-N3): 32.9396% and 22.7789% and 30.45%
- IC50 (human TMPRSS2; [6]): 0.0031 µM
- IC50 (human TMPRSS2; TMPRSS2, single experiments, Figure 1C, read-out: IC50 determined from independant experiments): 0.00174 µM and 0.00287 µM and 0.0047 µM
- inhibition at 0.01 µM (human TMPRSS2): 72%
- IC50 (human TMPRSS2; [7]): 0.0031 ± 0.0015 µM
- Ki (human cathepsin L): > 10 µM
- Ki (Recombinant human DESC1): 0.028 ± 0.01 µM
- Ki (human thrombin): 8.23 ± 1.55 µM

Compound: N=C(N)NCCCCC(=O)N[C@@H](CCC(=O)O)C(=O)N[C@@H](Cc1ccccc1)C(=O)N[C@@H](CCCNC(=N)N)C(=O)c1nc2ccccc2s1 [Compound N-0438, (H)REFR-kbt]
- Ki (Recombinant human hepsin): 0.00052 ± 7e-05 µM
- Ki [1]: 0.00111 ± 9e-05 µM
- Ki (Recombinant human furin): > 10 µM
- Nucleocapsid [2]: 4.61 and 18.8861
- dsRNA [2]: 14.5614 and 27.1131
- EC50 [2]: 0.0357 ± 0.0245 µM
- inhibition at 0.1 µM [2]: > 88%
- Figure 2b dose-response, Mean ([2]; log [C] (nM) 0.20412): 87.8313
- Figure 2b dose-response, Mean ([2]; log [C] (nM) 0.90309): 62.8653
- Figure 2b dose-response, Mean ([2]; log [C] (nM) 1.60206): 44.3084
- Figure 2b dose-response, Mean ([2]; log [C] (nM) 2.30103): 28.0955
- Figure 2b dose-response, Mean ([2]; log [C] (nM) 3): 3.627
- Figure 2b dose-response, Mean ([2]; log [C] (nM) -0.49485): 89.252
- Figure 2b dose-response, Mean ([2]; log [C] (nM) -1.19382): 94.5427
- viability at 24 h, 3000 µM [3, 4]: 25.5%
- viability at 24 h, 300 µM [3, 4]: 87.5%
- viability at 24 h, 300 µM [3, 5]: 86%
- viability at 24 h, 100 µM [3, 4]: 86%
- viability at 24 h, 100 µM [3, 5]: 81%
- viability at 24 h, 30 µM [3, 4]: 89%
- viability at 24 h, 30 µM [3, 5]: 89%
- viability at 24 h, 10 µM [3, 4]: 89%
- viability at 24 h, 10 µM [3, 5]: 93%
- viability at 24 h, 3 µM [3, 4]: 99%
- viability at 24 h, 3 µM [3, 5]: 101%
- viability at 24 h, 0.3 µM [3, 4]: 108%
- viability at 24 h, 0.3 µM [3, 5]: 111%
- viability at 24 h, 0.03 µM [3, 4]: 103%
- viability at 24 h, 0.03 µM [3, 5]: 107%
- viability at 24 h, 0.003 µM [3, 4]: 104%
- viability at 24 h, 0.003 µM [3, 5]: 109%
- CC50 at 24 h [3]: 980 µM
- % of Viability (Calu-3 cells; Log [inhibitor] -2.52): 12% and 39%
- % of Viability (Calu-3 cells; Log [inhibitor] -4.00): 91%
- % of Viability (Calu-3 cells; Log [inhibitor] -5.00): 85%
- % of Viability (Calu-3 cells; Log [inhibitor] -5.52): 97%
- TMPRSS2 relative activity (human TMPRSS2; 1.60E-10 M): 86.6686 and 86.7823
- TMPRSS2 relative activity (human TMPRSS2; 2.00E-08 M): 4.266 and 6.221
- TMPRSS2 relative activity (human TMPRSS2; 3.20E-11 M): 102.504 and 103.881
- TMPRSS2 relative activity (human TMPRSS2; 4.00E-09 M): 35.2539 and 37.178
- TMPRSS2 relative activity (human TMPRSS2; 8.00E-10 M): 70.1907 and 73.6892
- IC50 (human TMPRSS2; [6]): 0.00517 µM
- inhibition at 0.01 µM (human TMPRSS2): 84%
- IC50 (human TMPRSS2; [7]): 0.0052 ± 0.0054 µM
- Ki (human cathepsin L): > 10 µM
- Ki (Recombinant human DESC1): 0.031 ± 0.003 µM
- Ki (human thrombin): > 10 µM
